Data taken from patent US12123876B2, “Antibody binding to HEG1 and use of the antibody for detection and treatment of mesothelioma” (Kanagawa Prefectural Hospital Organization, priority 2016, dated 2024).
“Also recorded” adds a separate entry of the source.

Experiments:
[1] = tested on: SKM9-2 antibody; test: Western blot reactivity of human HEG1 fragments expressed in ACC-MESO-1 with SKM9-2 antibody; assay type: binding, mouse; conditions: for Binding to SKM9-2 antibody (positive/negative): Western blot of cell lysate
Procedure: In this Example, the mesothelioma cell line ACC-MESO-1 was allowed to express a human HEG1 fragment with the endogenous HEG1 of ACC-MESO-1 knocked down, and the reactivity with the SKM9-2 antibody was examined. Subsequently, the reactivity with the antibody was tested for the epitope region through alanine scanning, and key amino acids for binding to the antibody were determined.
Gene transfer was performed with HEG1 siRNA (H9106) (SEQ ID NOs: 40, 41) and human HEG1 for the mesothelioma cell line ACC-MESO-1, and the reactivity of the SKM9-2 was examined through Western blot analysis. A full length protein (HEG1 full length) or a fragment (HEG1 3 kb, HEG1 2 kb, or HEG1 1 kb) of the human HEG1 was used. The full length human HEG1 protein, a protein having the amino acid sequence set forth in SEQ ID NO: 35, was obtained through inserting a base sequence set forth in SEQ ID NO: 34 into pFLAG-CMV1 (Sigma-Aldrich Japan K.K.) to obtain a plasmid, transforming the plasmid, and allowing the mesothelioma cell line to express the plasmid. Fragment HEG1 3 kb was obtained through inserting a fragment corresponding to a sequence from position 285, leucine, to position 1387, phenylalanine, of SEQ ID NO: 35 into pFLAG-CMV1 (Sigma-Aldrich Japan K.K.) in an in-frame manner, and allowing the mesothelioma cell line to express the resultant. HEG1 2 kb and HEG1 1 kb were obtained through allowing the mesothelioma cell line to express products similarly obtained from a fragment corresponding to a sequence from position 677, leucine, to position 1387, phenylalanine, of SEQ ID NO: 35 and a fragment corresponding to a sequence from position 992, valine, to position 1387, phenylalanine, of SEQ ID NO: 35, respectively. Each cell lysate was analyzed through Western blot with the SKM9-2 antibody.
Further, the region in exon 7 of HEG1 was analyzed in detail. […]

[2] = target: recombinant human intelectin-1 (Homo sapiens, UniProt Q8WWA0, V109D); test: Biacore inhibition of intelectin binding to diol structure; conditions: inhibition of intelectin (0.5 μg/mL) binding
Procedure: The binding between intelectin and the diol SEPHAROSE® (crosslinked, beaded-form of agarose) beads was inhibited in the presence of another compound with diol structure. An experiment was conducted in which binding of recombinant human intelectin-1 to a sensor chip including 3-Amino-1-propanediol fixed thereto via amino groups was measured by using a Biacore (GE Healthcare Bio-Sciences AB) in the presence of various compounds serially diluted, where intelectin was used with a final concentration of 0.5 μg/mL, and 10 mM HEPES buffer (pH 7.0) containing 1 mM CaCl2), 150 mM NaCl, and 0.03% TWEEN® 20 (polyethylene glycol sorbitan monolaurate, polyoxyethylenesorbitan monolaurate) was used as buffer for measurement, and the binding rate of intelectin was determined for each sample as the degree of binding of intelectin measured for a sample without addition of compound was defined as a binding rate of 100%.

[3] = tested on: NCI-H2452 cells; test: Cell proliferation after HEG1 knock-down, NCI-H2452; assay type: cell-based; conditions: NCI-H2452, another mesothelioma cell line
[4] = tested on: HEK-293T cells; test: Cell proliferation after HEG1 siRNA, HEK-293T; assay type: cell-based; conditions: which do not express HEG1

recombinant human intelectin-1, sequence (Q8WWA0 19-298 V109D): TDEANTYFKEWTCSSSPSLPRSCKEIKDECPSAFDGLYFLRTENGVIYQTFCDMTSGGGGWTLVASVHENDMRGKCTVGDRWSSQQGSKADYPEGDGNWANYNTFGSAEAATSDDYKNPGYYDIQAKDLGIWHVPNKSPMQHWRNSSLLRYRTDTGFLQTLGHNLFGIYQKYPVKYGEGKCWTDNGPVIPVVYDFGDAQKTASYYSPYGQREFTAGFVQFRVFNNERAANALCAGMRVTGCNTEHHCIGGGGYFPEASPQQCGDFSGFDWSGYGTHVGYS

Molecule | IC50 [2] [mM] | further results
7.6231: SEQ ID NO: 49 (SKSPSLVSLPTE) bonded to SLURPgpi (GGSKSPSLVSLPTEGG; 7.6231 - SLURPgpi (7.6231)) |  | Binding to SKM9-2 antibody (positive/negative) [1]: positive; Binding to SKM9-2 antibody (positive/negative) ([1]; listed as fragment 7.6231): positive signal; Reaction with SKM9-2 antibody after neuraminidase treatment ([1]; lysate treated with neuraminidase, listed as fragment 7.6231): disappeared; also recorded: does not react
CCC(O)CO (stereo not shown) [1,2-Butanediol] | ≤ 1 | 
CC(O)CO (stereo not shown) [1,2-Propanediol] | 0.9 | 
C[C@@H](O)CO [(R)-1,2-Propanediol] | 1 | 
O=C[C@H](O)[C@H](O)[C@H](O)CO [D-Ribose] | ≤ 1 | 
OCC(O)CO [Glycerol] | ≤ 1 | 
O=C1O[C@H]([C@@H](O)CO)C(O)=C1O [L-Ascorbic acid] | ≤ 1 | 
O=C[C@@H](O)[C@@H](O)[C@@H](O)CO [L-Ribose] | ≤ 1 | 
CCCC(=O)OCC(O)CO (stereo not shown) [Monobutyrin] | 0.8 | 
H2674: siRNA for human HEG1; sense SEQ ID NO: 25 CCUAUAGCCGUACAGACUACA, antisense SEQ ID NO: 26; called HEG1 siRNA in b178 (antisense UAGUCUGUACGGCUAUAGGGC; listed as RNA, chemistry not given here) |  | Cell proliferation [3]: suppressed cell proliferation; Cell proliferation [4]: not affected
